In patent US20120252852A1 (SANOFI, priority 2011, published 2012):

Assays:
[1] = Level of impurities in dependency on pH and repeated autoclaving (1 mg/mL Otamixaban, citrate composition of Example 5, HPLC); type: physicochemical; details: for Increase of Formula III (carbamoyl-benzyl butyric acid methyl ester): pH 4.7
Protocol: The appropriate pH value was adjusted by using sodium hydroxide solution (1 M sodium hydroxide) or diluted hydrochloric acid (1 M hydrochloric acid). […] [table] […] The mobile phase was filtered through a 1.5 μm filter. Typically, add 500 mL of mobile phase A to 500 mL of acetonitrile. Mix and degas. [table] [table]

[2] = molecular target: factor Xa assembled in the prothrombinase complex (Factor Xa, Factor Va, calcium and phospholipid) (Homo sapiens, UniProt P00742); details: cited from earlier work
Sequence of factor Xa assembled in the prothrombinase complex (Factor Xa, Factor Va, calcium and phospholipid) (P00742 235-488 limits assumed): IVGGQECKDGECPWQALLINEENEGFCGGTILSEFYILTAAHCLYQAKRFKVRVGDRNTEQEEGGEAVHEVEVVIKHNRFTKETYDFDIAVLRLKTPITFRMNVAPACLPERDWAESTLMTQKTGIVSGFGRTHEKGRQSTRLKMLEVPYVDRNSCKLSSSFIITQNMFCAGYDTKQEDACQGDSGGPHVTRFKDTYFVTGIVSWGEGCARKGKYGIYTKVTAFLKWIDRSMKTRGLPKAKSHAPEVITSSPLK
Sequence of factor Xa assembled in the prothrombinase complex (Factor Xa, Factor Va, calcium and phospholipid) (P00742 41-179 limits assumed): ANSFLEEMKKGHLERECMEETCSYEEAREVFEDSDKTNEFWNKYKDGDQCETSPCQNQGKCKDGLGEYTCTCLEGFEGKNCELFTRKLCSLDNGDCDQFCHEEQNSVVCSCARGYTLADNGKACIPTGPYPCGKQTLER
Sequence of factor Xa assembled in the prothrombinase complex (Factor Xa, Factor Va, calcium and phospholipid) (P12259 29-737 partner limits assumed): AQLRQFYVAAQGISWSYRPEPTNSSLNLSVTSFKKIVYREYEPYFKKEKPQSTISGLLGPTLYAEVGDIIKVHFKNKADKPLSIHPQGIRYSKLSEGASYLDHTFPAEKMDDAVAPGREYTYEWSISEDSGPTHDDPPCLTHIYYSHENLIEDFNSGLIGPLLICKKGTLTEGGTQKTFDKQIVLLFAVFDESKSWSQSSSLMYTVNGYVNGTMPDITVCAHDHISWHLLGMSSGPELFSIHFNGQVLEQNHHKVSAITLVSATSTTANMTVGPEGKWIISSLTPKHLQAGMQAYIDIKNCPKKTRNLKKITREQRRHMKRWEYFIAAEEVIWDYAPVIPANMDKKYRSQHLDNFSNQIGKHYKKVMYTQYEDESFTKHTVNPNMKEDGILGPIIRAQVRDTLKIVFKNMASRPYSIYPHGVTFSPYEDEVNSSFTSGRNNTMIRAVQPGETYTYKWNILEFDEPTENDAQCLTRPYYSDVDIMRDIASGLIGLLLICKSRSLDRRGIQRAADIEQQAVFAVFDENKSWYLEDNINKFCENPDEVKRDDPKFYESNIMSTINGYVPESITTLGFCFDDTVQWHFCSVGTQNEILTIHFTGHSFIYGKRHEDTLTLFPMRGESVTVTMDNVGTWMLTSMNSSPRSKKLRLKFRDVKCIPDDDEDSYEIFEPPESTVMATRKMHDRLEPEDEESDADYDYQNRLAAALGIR
Sequence of factor Xa assembled in the prothrombinase complex (Factor Xa, Factor Va, calcium and phospholipid) (P12259 1574-2224 partner limits assumed): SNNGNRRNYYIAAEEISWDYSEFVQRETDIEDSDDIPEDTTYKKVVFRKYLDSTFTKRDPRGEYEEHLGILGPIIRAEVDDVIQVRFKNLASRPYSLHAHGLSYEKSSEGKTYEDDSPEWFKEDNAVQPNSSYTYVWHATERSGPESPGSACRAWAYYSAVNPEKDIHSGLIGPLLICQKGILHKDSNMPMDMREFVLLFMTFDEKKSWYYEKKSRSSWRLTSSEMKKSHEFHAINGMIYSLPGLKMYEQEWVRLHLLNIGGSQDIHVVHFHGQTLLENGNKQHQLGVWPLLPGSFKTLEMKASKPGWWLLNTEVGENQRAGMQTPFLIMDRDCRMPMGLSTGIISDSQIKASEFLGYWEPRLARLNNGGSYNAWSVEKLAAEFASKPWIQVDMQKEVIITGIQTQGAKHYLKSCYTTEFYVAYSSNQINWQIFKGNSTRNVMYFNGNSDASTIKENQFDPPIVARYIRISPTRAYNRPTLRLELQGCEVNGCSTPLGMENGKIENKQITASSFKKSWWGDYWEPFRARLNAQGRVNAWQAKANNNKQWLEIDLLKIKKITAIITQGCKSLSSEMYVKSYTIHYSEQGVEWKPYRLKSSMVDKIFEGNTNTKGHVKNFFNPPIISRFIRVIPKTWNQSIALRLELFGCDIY

[3] = humans; cited from earlier work
factor Xa = molecular target: T1, factor Xa (Homo sapiens, UniProt P00742); details: patients with stable coronary artery disease taking usual comedication; cited from earlier work
T1 construct: host or cells: blood of patients (in vivo / ex vivo)
T1 sequence (P00742 235-488 limits assumed): as the sequence (P00742 235-488 limits assumed) above
T1 sequence (P00742 41-179 limits assumed): as the sequence (P00742 41-179 limits assumed) above

[4] = Level of impurities in dependency on pH and storage time (1 mg/mL, autoclaved one time, stored at 40° C. and 75% RH, HPLC); type: physicochemical
Protocol: The appropriate pH value was adjusted by using sodium hydroxide solution (1 M sodium hydroxide) or diluted hydrochloric acid (1 M hydrochloric acid). The prepared vials were autoclaved one time and were stored at 40° C. and 75% RH (relative humidity).

[5] = Level of impurities in dependency on citric acid (22.8 mmol/L) and storage time (1 mg/mL, autoclaved once, 40° C. and 75% RH, HPLC); type: physicochemical
Protocol: The prepared vials were autoclaved once and were stored at 40° C. and 75% RH (relative humidity).

[6] = repeated autoclaving, pH 2.5 to 4.7

Increase of Formula III (carbamoyl-benzyl butyric acid methyl ester) ([1]; 2 autoclaving): 3.20%
Increase of Formula III (carbamoyl-benzyl butyric acid methyl ester) ([1]; 3 autoclaving): 4.58%
Levels of Formula II (carbamimidoyl acid) versus pH [1, 6]: minimum at pH 4
Levels of Formula III (carbamoyl methyl ester) versus pH [1, 6]: lowest at the lowest pH
Level of Formula II versus pH over storage time ([4]; 40° C. and 75% RH): increased faster with lower pH
Levels of Formula III versus pH over storage time ([4]; 40° C. and 75% RH): parallel at different pH values
Increase of Formula II (carbamimidoyl-benzyl butyric acid) ([4]; pH 2.5, storage 0 months): 0.33%
Increase of Formula II (carbamimidoyl-benzyl butyric acid) ([4]; pH 2.5, storage 1 month): 1.47%
Increase of Formula II (carbamimidoyl-benzyl butyric acid) ([4]; pH 2.5, storage 3 months): 3.73%
Increase of Formula II (carbamimidoyl-benzyl butyric acid) ([4]; pH 2.5, storage 6 months): 7.10%
Increase of Formula II (carbamimidoyl-benzyl butyric acid) ([4]; pH 3.0, storage 0 months): 0.18%
Increase of Formula II (carbamimidoyl-benzyl butyric acid) ([4]; pH 3.0, storage 1 month): 0.58%
Increase of Formula II (carbamimidoyl-benzyl butyric acid) ([4]; pH 3.0, storage 3 months): 1.39%
Increase of Formula II (carbamimidoyl-benzyl butyric acid) ([4]; pH 3.0, storage 6 months): 2.61%
Increase of Formula II (carbamimidoyl-benzyl butyric acid) ([4]; pH 3.2, storage 0 months): 0.15%
Increase of Formula III (carbamoyl-benzyl butyric acid methyl ester) ([4]; pH 3.2, storage 0 months): 0.76%
Increase of Formula II (carbamimidoyl-benzyl butyric acid) ([4]; pH 3.2, storage 1 month): 0.41%
Increase of Formula III (carbamoyl-benzyl butyric acid methyl ester) ([4]; pH 3.2, storage 1 month): 0.85%
Increase of Formula II (carbamimidoyl-benzyl butyric acid) ([4]; pH 3.2, storage 3 months): 0.93%
Increase of Formula III (carbamoyl-benzyl butyric acid methyl ester) ([4]; pH 3.2, storage 3 months): 1.00%
Increase of Formula II (carbamimidoyl-benzyl butyric acid) ([4]; pH 3.2, storage 6 months): 1.74%
Increase of Formula III (carbamoyl-benzyl butyric acid methyl ester) ([4]; pH 3.2, storage 6 months): 1.24%
Increase of Formula II (carbamimidoyl-benzyl butyric acid) ([4]; pH 3.5, storage 0 months): 0.12%
Increase of Formula II (carbamimidoyl-benzyl butyric acid) ([4]; pH 3.5, storage 1 month): 0.27%
Increase of Formula II (carbamimidoyl-benzyl butyric acid) ([4]; pH 3.5, storage 3 months): 0.55%
Increase of Formula II (carbamimidoyl-benzyl butyric acid) ([4]; pH 3.5, storage 6 months): 0.99%
Increase of Formula II (carbamimidoyl-benzyl butyric acid) ([4]; pH 3.7, storage 0 months): 0.11%
Increase of Formula II (carbamimidoyl-benzyl butyric acid) ([4]; pH 3.7, storage 1 month): 0.22%
Increase of Formula II (carbamimidoyl-benzyl butyric acid) ([4]; pH 3.7, storage 3 months): 0.42%
Increase of Formula II (carbamimidoyl-benzyl butyric acid) ([4]; pH 3.7, storage 6 months): 0.72%
Increase of Formula II (carbamimidoyl-benzyl butyric acid) ([4]; pH 4.0, storage 0 months): 0.12%
Increase of Formula II (carbamimidoyl-benzyl butyric acid) ([4]; pH 4.0, storage 1 month): 0.18%
Increase of Formula II (carbamimidoyl-benzyl butyric acid) ([4]; pH 4.0, storage 3 months): 0.32%
Increase of Formula II (carbamimidoyl-benzyl butyric acid) ([4]; pH 4.0, storage 6 months): 0.52%
Increase of Formula II (carbamimidoyl-benzyl butyric acid) ([4]; pH 4.2, storage 0 months): 0.13%
Increase of Formula II (carbamimidoyl-benzyl butyric acid) ([4]; pH 4.2, storage 1 month): 0.18%
Increase of Formula II (carbamimidoyl-benzyl butyric acid) ([4]; pH 4.2, storage 3 months): 0.27%
Increase of Formula II (carbamimidoyl-benzyl butyric acid) ([4]; pH 4.2, storage 6 months): 0.43%
Increase of Formula II (carbamimidoyl-benzyl butyric acid) ([4]; pH 4.5, storage 0 months): 0.15%
Increase of Formula II (carbamimidoyl-benzyl butyric acid) ([4]; pH 4.5, storage 1 month): 0.20%
Increase of Formula II (carbamimidoyl-benzyl butyric acid) ([4]; pH 4.5, storage 3 months): 0.30%
Increase of Formula II (carbamimidoyl-benzyl butyric acid) ([4]; pH 4.5, storage 6 months): 0.44%
Increase of Formula II (carbamimidoyl-benzyl butyric acid) ([4]; pH 4.7, storage 0 months): 0.20%
Increase of Formula II (carbamimidoyl-benzyl butyric acid) ([4]; pH 4.7, storage 1 month): 0.25%
Increase of Formula II (carbamimidoyl-benzyl butyric acid) ([4]; pH 4.7, storage 3 months): 0.36%
Increase of Formula II (carbamimidoyl-benzyl butyric acid) ([4]; pH 4.7, storage 6 months): 0.52%
Total impurities ([5]; pH 3.0/3.1 (start/1 month), 1 month): 1.33%
Total impurities ([5]; pH 3.0/3.1 (start/1 month), start): 0.87%
Total impurities ([5]; pH 3.6/3.6 (start/1 month), 1 month): 1.06%
Total impurities ([5]; pH 3.6/3.6 (start/1 month), start): 0.83%
Total impurities ([5]; pH 4.0/4.1 (start/1 month), 1 month): 1.17%
Total impurities ([5]; pH 4.0/4.1 (start/1 month), start): 0.98%
Total impurities ([5]; pH 4.6/4.6 (start/1 month), 1 month): 1.75%
Total impurities ([5]; pH 4.6/4.6 (start/1 month), start): 1.51%
Total impurities ([5]; pH 5.1/5.1 (start/1 month), 1 month): 3.80%
Total impurities ([5]; pH 5.1/5.1 (start/1 month), start): 3.57%
Total impurities ([5]; pH 6.1/6.1 (start/1 month), 1 month): 28.16%
Total impurities ([5]; pH 6.1/6.1 (start/1 month), start): 27.12%
Compound: COC(=O)[C@H](Cc1cccc(C(=N)N)c1)[C@@H](C)NC(=O)c1ccc(-c2cc[n+]([O-])cc2)cc1 (mixture of isomers) [Otamixaban, Methyl (2R,3R)-2-{3-[amino(imino)methyl]benzyl}-3-{[4-(1-oxidopyridin-4-yl)benzoyl]amino}butanoate]
Inhibition of factor Xa assembled in the prothrombinase complex [2]: inhibited
Clinical efficacy, safety and tolerability [3]: efficacious, safe and well tolerated
Factor Xa inhibition in patients (factor Xa): dose-dependent, rapid direct factor Xa inhibition
